Source: patent US11090307B2, “Treating male senescence” (National Institute of Biological Sciences, Beijing, priority 2017, dated 2021)

How the values were obtained:
[1] = tested on: 13-month old male wild type mice; experiment: Long-term feeding of 13-month old male wild type mice with RIPA-56 chow for two months; assay type: in vivo
Procedure: We subsequently chose the 300 mg/kg dose to continuously feed 13-month old male wild type mice for two months to study the long-term effects of blocking necroptosis on testes. […] Additionally, the testosterone level of RIPA-56-treated mice remained high, while that of control mice decreased. […] Finally, the fertility rates of the RIPA-56-treated mice were much higher than those of control mice with 19 out of 25 mice on the RIPA-56 diet were fertile while only 6 out of 23 mice on normal diet produced progeny.

[2] = tested on: phospho-MLKL in the testes; experiment: TSZ-induced necroptosis in testes of mice fed RIPA-56-containing chow; assay type: in vivo
Procedure: We therefore evaluated the effects of a newly-identified, highly-potent, and highly-specific RIP1 kinase inhibitor from our laboratory (henceforth ‘RIPA-56’)(Ren et al., 2017) by incorporating it into mouse food at 150 mg/kg and 300 mg/kg doses. We first tested the effect of RIPA-56 on necroptosis in testes by injecting TSZ into testes of 2-month old mice after feeding the mice with increasing concentrations of RIPA-56-containing chow for one week.

SMILES: CCC(C)(C)C(=O)N(O)Cc1ccccc1 [RIPA-56]
- empty seminiferous tubules ([1]; 300 mg/kg in food, two months): hardly any seminiferous vesicles were empty
- fertility rate (fertile mice) ([1]; 300 mg/kg in food, two months): 19 out of 25
- gross male aging metrics (body weight, fat deposition, libido, fertility, muscle mass, prostate hyperplasia) ([1]; 300 mg/kg in food, two months): more youthful gross male aging metrics
- mass of seminal vesicles ([1]; 300 mg/kg in food, two months): around 1,000 milligrams
- testosterone level ([1]; 300 mg/kg in food, two months): remained high
- body weight ([1]; 300 mg/kg in food, two months, vs control chow diet): weighed less than mice fed with control chow diet
- age-associated weight gain ([1]; necroptosis blocked pharmaceutically): much less age-associated wright gain
- block of necroptosis in testes ([2]; 300 mg/kg dose in chow, one week, TSZ into testes): completely block necroptosis
- appearance of TSZ-induced phospho-MLKL in the testes ([2]; 2-month old mice, chow with increasing concentrations (150 mg/kg and 300 mg/kg) for one week, then TSZ into testes): blocked the appearance of TSZ-induced phospho-MLKL in the testes in a dose-dependent manner
